Test results from patent publication US9487489B2, “Halogen-substituted pyrazole derivatives as pest-control agents” (BAYER CROPSCIENCE AKTIENGESELLSCHAFT, priority 2013, dated 2016).

Legend:
[1] = test system: engorged adult female cattle ticks (Boophilus microplus); assay: Boophilus microplus injection test (BOOPMI Inj); type: in vivo; conditions: application rate 20 μg/animal; injection into abdomen; assessed after 7 days
How it was run: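 Efficacy is read at 7 days as fertile egg laying (100% = no fertile eggs laid; 0% = all eggs fertile), with eggs of unclear fertility stored until larvae hatch at about 42 days. Five engorged adult females per dose each receive an abdominal injection of 1 μl compound dissolved in DMSO.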

[2] = logP determination by HPLC on a reversed-phase column (C18), EEC Directive 79/831 Annex V.A8; type: physicochemical
How it was run: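 Per EEC 79/831 Annex V.A8, values derive from HPLC retention at 2.0 ml/min and 55° C on a 50*4.6 C18 column. The 10→95% acetonitrile gradient (0.1%/0.09% formic acid) lasted 4.25 min plus a 1.25 min hold; mass detection was by MSD.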

[3] = test system: greenhouse red spider mite (Tetranychus urticae); assay: Tetranychus urticae spray test, OP-resistant (TETRUR); type: in vivo; conditions: bean leaf discs, after 6 days
How it was run: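 Percent kill, scored 6 days post-spray (0% = none dead, 100% = all dead), on Phaseolus vulgaris leaf discs infested with every life stage of the OP-resistant spider mite. Compound dissolved in acetone plus DMF, diluted to test concentration with emulsifier-containing water (1000 ppm).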

[4] = test system: cattle ticks (Boophilus microplus) Parkhurst strain, SP-resistant; assay: Boophilus microplus dip test (BOOPMI Dip); type: in vivo; conditions: application rate 100 ppm, assessed after 7 days
How it was run: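 Adult engorged female SP-resistant Parkhurst ticks (8–10) were fully immersed in compound diluted in water from a DMSO solution, then kept in a climate-controlled room. After 7 days, fertile egg-laying was scored, with larval hatching checked at about 42 days; 100% efficacy means no fertile eggs.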

[5] = test system: green peach aphid (Myzus persicae); assay: Myzus persicae spray test (MYZUPE); type: in vivo; conditions: Chinese cabbage leaf discs, after 6 days
How it was run: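 Chinese cabbage leaf discs infested with all aphid stages sprayed with compound in acetone/DMF with alkylaryl polyglycol ether emulsifier in water. Efficacy (% aphids killed; 100% all dead, 0% none) scored after 6 days.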

[6] = test system: larvae of the mustard beetle (Phaedon cochleariae); assay: Phaedon cochleariae spray test (PHAECO); type: in vivo; conditions: Chinese cabbage leaf discs, after 7 days
How it was run: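 Kill of mustard beetle larvae is read as % mortality 7 days after spraying. Spray liquid: active compound in acetone plus dimethylformamide, brought up with water holding 1000 ppm alkylaryl polyglycol ether emulsifier and diluted further in emulsifier-water.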

[7] = test system: adult cat fleas (Ctenocephalides felis); assay: Ctenocephalides felis oral test (CTECFE); type: in vivo; conditions: application rate 100 ppm in citrated cattle blood; after 2 days
How it was run: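 Mortality read at 2 days as percent of fleas killed. Compound predissolved in DMSO, diluted into citrated cattle blood and offered to roughly 20 unfed adult C. felis via parafilm membrane feeder.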

[8] = test system: adult castor bean ticks (Ixodes ricinus); assay: Ixodes ricinus in vitro contact test with adult castor bean ticks (T3); conditions: after 48 h
Protocol: T3. Ixodes ricinus-in vitro Contact Tests with Adult Castor Bean Ticks
For the coating of the test tubes, initially 9 mg of active compound are dissolved in 1 ml of acetone p.a. and then diluted with acetone p.a. to the desired concentration. By turning and rocking on an orbital shaker (2 h of rocking rotation at 30 rpm), 250 μl of the solution are distributed homogeneously on the internal walls and the floor of a 25 ml test tube. At 900 ppm active compound solution and 44.7 cm^2 internal surface, an area dose of 5 μg/cm^2 is achieved for homogeneous distribution.
After evaporation of the solvent, the tubes are populated with 5-10 adult castor bean ticks (Ixodes ricinus), sealed with a perforated plastic lid and incubated in a horizontal position in the dark at 22° C. and 90% humidity in a climate-controlled cabinet. After 48 h, the efficacy is determined. To this end, the ticks are knocked to the floor of the tube and incubated on a hotplate at 45-50° C. for at most 5 min. Ticks which remain motionless on the floor or move in an uncoordinated manner such that they are not able to deliberately avoid the heat by climbing upwards are considered to be dead or moribund.
An efficacy of 100% means that all ticks were dead or moribund. 0% efficacy means that none of the ticks had been damaged.

[9] = HPLC on reversed-phase column (C18), acetonitrile/water with formic acid, EEC Directive 79/831 Annex V.A8

| SMILES | efficacy (laying of fertile eggs) [1] | logP [2, 9] | efficacy in % ([3]; application rate 100 g/ha) | efficacy (laying of fertile eggs) [4] | efficacy in % ([5]; application rate 100 g/ha) | efficacy in % ([6]; application rate 100 g/ha) | efficacy (kill in %) [7] | efficacy (dead or moribund ticks) ([8]; application rate 1 μg/cm^2) | efficacy (dead or moribund ticks) ([8]; application rate 5 μg/cm^2) | efficacy in % ([3]; application rate 500 g/ha) | efficacy in % ([5]; application rate 500 g/ha) | efficacy in % ([6]; application rate 500 g/ha) | logP ([2]; HPLC, reversed-phase C18, acetonitrile (0.1% formic acid)/water (0.09% formic acid) gradient) |
| --- | --- | --- | --- | --- | --- | --- | --- | --- | --- | --- | --- | --- | --- |
| Cn1nc(C(F)(F)C(F)(F)F)c(C(F)(F)F)c1-n1cc(-c2ccc(Cl)c(C(=O)NCC(F)F)c2)cn1 [Ic-78] | 100% | 3.86 | 100% | 100% | 90% | 100% | 100% | – | – | – | – | – | – |
| Cn1nc(C(F)(F)C(F)(F)F)c(C(F)(F)F)c1-n1cc(-c2ccc(F)c(C(=O)NC3(C#N)CC3)c2)cn1 [Ic-36] | 100% | 3.69 | 100% | 100% | 90% | 100% | 100% | – | – | – | – | – | – |
| Cn1nc(C(F)(F)C(F)(F)F)c(C(F)(F)F)c1-n1cc(-c2cc(Cl)c(Cl)c(C(=O)NC3CC3)c2)cn1 [Ic-94] | 100% | – | – | 100% | – | – | 100% | 100% | 100% | 100% | 100% | 100% | – |
| CCn1nc(C(F)(F)C(F)(F)F)c(C(F)(F)F)c1-n1cc(-c2ccc(Cl)c(C(=O)NC3CC3)c2)cn1 [Ic-16] | 100% | 4.14 | – | 100% | – | 100% | 100% | 100% | 100% | – | – | – | – |
| Cn1nc(C(F)(F)C(F)(F)F)c(C(F)(F)F)c1-n1cc(-c2cc(F)c(Cl)c(C(=O)NC3(C#N)CC3)c2)cn1 [Ic-27] | 100% | 3.87 | – | 100% | – | – | 100% | – | – | 100% | 90% | 100% | – |
| Cn1nc(C(F)(F)C(F)(F)F)c(C(F)(F)F)c1-n1cc(-c2ccc([N+](=O)[O-])c(C(=O)NC3CC3)c2)cn1 [Ic-66] | 100% | 3.53 | 100% | 100% | 90% | 100% | 100% | – | – | – | – | – | – |
| Cn1nc(C(F)(F)C(F)(F)F)c(C(F)(F)F)c1-n1cnc(-c2ccc(Cl)c(C(=O)NC3CC3)c2)c1 [Ib-3] | 100% | – | 100% | 100% | – | 100% | 100% | 80% | 80% | – | – | – | 3.43 |
| Cn1nc(C(F)(F)C(F)(F)F)c(C(F)(F)F)c1-n1cc(-c2cc(F)c(Cl)c(C(=O)NC3CC3)c2)cn1 [Ic-24] | 100% | 3.90 | – | 100% | – | – | 100% | – | – | 100% | 90% | 100% | – |
| CN(C(=O)c1cc(-c2cnn(-c3c(C(F)(F)F)c(C(F)(F)C(F)(F)F)nn3C)c2)ccc1Cl)C1(C#N)CC1 [Ic-96] | 100% | 4.1 | 100% | 100% | 100% | 100% | 100% | – | – | – | – | – | – |
